# System: P12-Ichikawa
# Experiment: cell viability relative to DMSO control; higher = less cytotoxic
# Conditions: 48 h
# How it was run: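 Viability is expressed as a percentage of DMSO wells within each plate, and cell-free wells serve as background. Seeding densities in the 1536-well plates (5 μl) were 500 cells/well for NOMO1 or SEM leukemia cells and 1000 cells/well for P12-Ichikawa. Each line was adapted for at least four passages in each medium. Library compounds in DMSO were pin-dosed at 47 μM to 0.79 nM (11 points, threefold), and CellTiter-Glo One luminescence was read after 48 h at 37°C.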
# [1] = HPLM + 10% dialyzed FBS, 0.000781 µM
# [2] = HPLM + 10% dialyzed FBS, 0.00234 µM
# [3] = HPLM + 10% dialyzed FBS, 0.00702 µM
# [4] = HPLM + 10% dialyzed FBS, 0.0211 µM
# [5] = HPLM + 10% dialyzed FBS, 0.0632 µM
# [6] = HPLM + 10% dialyzed FBS, 0.19 µM
# [7] = HPLM + 10% dialyzed FBS, 0.569 µM
# [8] = HPLM + 10% dialyzed FBS, 1.71 µM
# [9] = HPLM + 10% dialyzed FBS, 5.12 µM
# [10] = HPLM + 10% dialyzed FBS, 15.4 µM
# [11] = HPLM + 10% dialyzed FBS, 46.1 µM
# [12] = RPMI 5 mM glucose + 10% FBS, 0.000781 µM
# [13] = RPMI 5 mM glucose + 10% FBS, 0.00234 µM
# [14] = RPMI 5 mM glucose + 10% FBS, 0.00702 µM
# [15] = RPMI 5 mM glucose + 10% FBS, 0.0211 µM
# [16] = RPMI 5 mM glucose + 10% FBS, 0.0632 µM
# [17] = RPMI 5 mM glucose + 10% FBS, 0.19 µM
# [18] = RPMI 5 mM glucose + 10% FBS, 0.569 µM
# [19] = RPMI 5 mM glucose + 10% FBS, 1.71 µM
# [20] = RPMI 5 mM glucose + 10% FBS, 5.12 µM
# [21] = RPMI 5 mM glucose + 10% FBS, 15.4 µM
# [22] = RPMI 5 mM glucose + 10% FBS, 46.1 µM
# [23] = RPMI 5 mM glucose + 10% dialyzed FBS, 0.000781 µM
# [24] = RPMI 5 mM glucose + 10% dialyzed FBS, 0.00234 µM
# [25] = RPMI 5 mM glucose + 10% dialyzed FBS, 0.00702 µM
# [26] = RPMI 5 mM glucose + 10% dialyzed FBS, 0.0211 µM
# [27] = RPMI 5 mM glucose + 10% dialyzed FBS, 0.0632 µM
# [28] = RPMI 5 mM glucose + 10% dialyzed FBS, 0.19 µM
# [29] = RPMI 5 mM glucose + 10% dialyzed FBS, 0.569 µM
# [30] = RPMI 5 mM glucose + 10% dialyzed FBS, 1.71 µM
# [31] = RPMI 5 mM glucose + 10% dialyzed FBS, 5.12 µM
# [32] = RPMI 5 mM glucose + 10% dialyzed FBS, 15.4 µM
# [33] = RPMI 5 mM glucose + 10% dialyzed FBS, 46.1 µM
Compound,cell viability [1] [%],cell viability [2] [%],cell viability [3] [%],cell viability [4] [%],cell viability [5] [%],cell viability [6] [%],cell viability [7] [%],cell viability [8] [%],cell viability [9] [%],cell viability [10] [%],cell viability [11] [%],cell viability [12] [%],cell viability [13] [%],cell viability [14] [%],cell viability [15] [%],cell viability [16] [%],cell viability [17] [%],cell viability [18] [%],cell viability [19] [%],cell viability [20] [%],cell viability [21] [%],cell viability [22] [%],cell viability [23] [%],cell viability [24] [%],cell viability [25] [%],cell viability [26] [%],cell viability [27] [%],cell viability [28] [%],cell viability [29] [%],cell viability [30] [%],cell viability [31] [%],cell viability [32] [%],cell viability [33] [%]
O=C(C1CC1)N1CC[C@@H](Cn2c(-c3ccc(-c4ccc5occc5c4)cc3)nc3cnccc32)C1,101,117,108,114,117,126,122,127,124,119,111,92.7,117,120,121,131,119,124,132,111,124,83.5,106,112,102,120,116,128,121,128,123,119,93
CCC[C@@H](C=O)NC(=O)[C@H](CC(C)C)NC(=O)[C@H](CC(C)C)NC(=O)OCc1ccccc1,107,108,120,120,117,118,132,118,12.1,6.77,5.18,105,116,113,118,122,121,121,104,7.61,6.3,4.83,104,115,120,124,124,130,133,133,14.7,7.12,5.01
O=C(O)CCNc1cc(N2CCc3ccccc3CC2)nc(-c2ccccn2)n1,119,116,115,127,114,111,117,112,114,102,88.5,122,119,113,110,114,123,123,128,104,97.8,69.2,116,130,123,126,123,109,115,121,114,102,79.6
COc1cccc2c(NCc3ccccc3)nc(-n3c(N)nc4ccccc43)nc12,99,103,108,107,108,112,109,111,94.3,58.3,8.25,94.8,108,95,115,111,103,111,110,114,63.7,6.11,106,100,111,99.6,112,114,119,111,102,76.6,10.1
CCc1ccc(C(=O)Nc2cc(CN3CCN(C)CC3)cc(C(F)(F)F)c2)cc1C#Cc1cnc2ccnn2c1,126,118,114,121,120,124,118,117,112,102,88.2,119,122,134,113,124,116,113,123,106,102,87.3,130,118,121,113,111,119,107,108,104,99.1,83.8
O=P1(N(CCCl)CCCl)NCCCO1 (stereo not drawn),112,113,115,113,106,109,101,106,98.1,16.5,6.1,112,113,109,113,108,113,112,102,101,51.8,8.07,115,109,106,102,107,117,108,101,101,90,17.3
C[C@@H](NCc1cc2ccccc2[nH]1)c1cccc2ccccc12,88.5,88.8,93.4,93,86.8,97,95.5,97.7,90,93.4,90.2,89.1,90.2,87.5,95.9,92.9,91.3,94.8,88,89.8,88.8,92.2,84.1,86.6,83.2,91.4,77.3,84.7,85.5,92.6,88.5,90.7,89.5
NC(=O)c1cnc(-c2ccc(C3(N)CCC3)cc2)c(-c2ccccc2)c1,,,,,,,,,,,,118,126,115,111,115,134,121,116,111,80.4,67.9,,,,,,,,,,,
NC1CCC(Nc2nc(Nc3ccc(C(=O)N4CCCCC4)cc3)c3ncn(-c4cccc(F)c4)c3n2)CC1 (stereo not drawn),110,112,115,117,112,126,120,121,124,137,134,116,119,120,125,120,128,125,124,126,139,123,112,108,120,119,121,123,118,118,129,139,130
Nc1nc(Nc2ccc([S+](N)(=O)[O-])cc2)nn1C(=O)c1c(F)cccc1F,104,109,103,106,112,110,106,112,90.7,101,21.5,107,106,110,113,104,105,111,101,83.7,81.7,23.1,111,106,105,107,114,115,109,108,84.9,86.6,24.3

# From the supplement of paper PMC11451515
